Measurements as given in patent publication US11453683B1, “KRas G12D inhibitors” (Mirati Therapeutics, Inc., priority 2019, dated 2022).

These compounds were tested on KRas G12D-mediated phosphorylation of ERK (assay: Inhibition of KRas G12D-mediated phosphorylation of ERK in AGS cells). Conditions: Homo sapiens; AGS cells expressing G12D, 3 hours, phospho-ERK normalized to GAPDH.
Format: cell-based
Protocol: Cells were plated in tissue culture treated 96 well plates at a density of 40,000 cells/well and allowed to attach for 12-14 hours. Diluted compounds were then added in a final concentration of 0.5% DMSO. After 3 hours, the medium was removed, 150 μL of 4.0% formaldehyde was added and the plates incubated at room temperature for 20 minutes. The plates were washed with PBS, and permeabilized with 150 μL of ice cold 100% methanol for 10 minutes. Non-specific antibody binding to the plates was blocked using 100 μL Licor blocking buffer (Li-Cor Biotechnology, Lincoln Nebr.) for 1 hour at room temperature.
The amount of phospho-ERK was determined using an antibody specific for the phosphorylated form of ERK and compared to the amount of GAPDH. Primary antibodies used for the detection were added as follows: Phospho-ERK (Cell Signaling cs-9101) diluted 1:500 and GAPDH (Millipore MAB374) diluted 1:5000 in Licor block+0.05% Tween 20. The plates were incubated for 2 hours at room temperature. The plates were washed with PBS+0.05% Tween 20.
Secondary antibodies used to visualize primary antibodies were added as follows: Anti-rabbit-680 diluted 1:1000 and Anti-mouse-800 diluted 1:1000 both in Licor block+0.05% TweeN2O, and were incubated for 1 hour at room temperature. The plates were washed with PBS+0.05% Tween 20. A 100 μL aliquot of PBS was added to each well and the plates were read on a Li-Cor Odyssey CLX plate reader.
The phospho-ERK (Thr202/Tyr204 signal was normalized to the GAPDH signal for each well and percent of DMSO control values were calculated. IC50 values were generated using a 4-parameter fit of the dose response curve
For Fc1c(-c2cccc3cccc(Cl)c23)ncc2c(N3CC4CCC(C3)N4)nc(OC[C@@]34CCCN3C[C@@H](C(F)(F)F)C4)nc12 (mixture of isomers) [Example 382, 4-((1R,5S)-3,8-diazabicyclo[3.2.1]octan-3-yl)-7-(8-chloronaphthalen-1-yl)-8-fluoro-2-(((2S,7aS)-2-(trifluoromethyl)tetrahydro-1H-pyrrolizin-7a(5H)-yl)methoxy)pyrido[4,3-d]pyrimidine) (mixture of cis diastereomers)], the IC50 was over 16700 nM.
With Oc1cc(-c2ncc3c(N4CC5CCC(C4)N5)nc(OCC45CCCN4C(CF)CC5)nc3c2F)c2ccccc2c1 (mixture of isomers) [Example 384, 4-(4-((1R,5S)-3,8-diazabicyclo[3.2.1]octan-3-yl)-8-fluoro-2-((3-(fluoromethyl)tetrahydro-1H-pyrrolizin-7a(5H)-yl)methoxy)pyrido[4,3-d]pyrimidin-7-yl)naphthalen-2-ol (mixture of isomers)] the IC50 was 398 nM.
COC1CN2CCCC2(COc2nc(N3CC4CCC(C3)N4)c3cnc(-c4cc(O)cc5cccc(F)c45)c(F)c3n2)C1 (mixture of isomers) [Example 388, 4-(4-((1R,5S)-3,8-diazabicyclo[3.2.1]octan-3-yl)-8-fluoro-2-((2-methoxytetrahydro-1H-pyrrolizin-7a(5H)-yl)methoxy)pyrido[4,3-d]pyrimidin-7-yl)-5-fluoronaphthalen-2-ol (mixture of trans diastereomers)] showed an IC50 of 40.2 nM.
Work on CCc1cccc2cncc(-c3ncc4c(N5CC6CCC(C5)N6)nc(OCC56CCCN5C[C@H](F)C6)nc4c3F)c12 (mixture of isomers) [Example 324, 4-((1R,5S)-3,8-diazabicyclo[3.2.1]octan-3-yl)-7-(5-ethylisoquinolin-4-yl)-8-fluoro-2-((2-fluorotetrahydro-1H-pyrrolizin-7a(5H)-yl)methoxy)pyrido[4,3-d]pyrimidine] yielded an IC50 of 864 nM.
CC1(C)CN2C[C@H](F)CC2(COc2nc(N3CC4CCC(C3)N4)c3cnc(-c4cccc5cccc(Cl)c45)c(F)c3n2)C1 (mixture of isomers) [Example 325, 4-((1R,5S)-3,8-diazabicyclo[3.2.1]octan-3-yl)-7-(8-chloronaphthalen-1-yl)-8-fluoro-2-((6-fluoro-2,2-dimethyltetrahydro-1H-pyrrolizin-7a(5H)-yl)methoxy)pyrido[4,3-d]pyrimidine] was tested, and the IC50 was over 16700 nM.
For Oc1cc(-c2ncc3c(N4CC5CCC(C4)N5)nc(OCC45CCCN4C[C@H](F)C5)nc3c2F)c2c(Cl)cccc2c1 (mixture of isomers) [Example 330, 4-(4-((1R,5S)-3,8-diazabicyclo[3.2.1]octan-3-yl)-8-fluoro-2-((2-fluorotetrahydro-1H-pyrrolizin-7a(5H)-yl)methoxy)pyrido[4,3-d]pyrimidin-7-yl)-5-chloronaphthalen-2-ol], the IC50 was 11.8 nM.
Work on Cc1ccc2[nH]ncc2c1-c1ncc2c(N3CC4CCC(C3)N4)nc(OCC34CCCN3C[C@H](F)C4)nc2c1F (mixture of isomers) [Example 331, 4-((1R,5S)-3,8-diazabicyclo[3.2.1]octan-3-yl)-8-fluoro-2-((2-fluorotetrahydro-1H-pyrrolizin-7a(5H)-yl)methoxy)-7-(5-methyl-1H-indazol-4-yl)pyrido[4,3-d]pyrimidine] yielded an IC50 of 10800 nM.
Fc1ccc2cccc(-c3ncc4c(N5CC6CCC(C5)N6)nc(OC[C@@]56CCCN5C[C@H](F)C6)nc4c3F)c2c1Cl (racemic) [Example 336, 4-((1R,5S)-3,8-diazabicyclo[3.2.1]octan-3-yl)-7-(8-chloro-7-fluoronaphthalen-1-yl)-8-fluoro-2-((2-fluorotetrahydro-1H-pyrrolizin-7a(5H)-yl)methoxy)pyrido[4,3-d]pyrimidine] was tested, and the IC50 was 1060 nM.
In the case of Oc1ccc(OC(F)(F)F)c(-c2ncc3c(N4CC5CCC(C4)N5)nc(OCC45CCCN4C[C@H](F)C5)nc3c2F)c1 (mixture of isomers) [Example 340, 3-(4-((1R,5S)-3,8-diazabicyclo[3.2.1]octan-3-yl)-8-fluoro-2-((2-fluorotetrahydro-1H-pyrrolizin-7a(5H)-yl)methoxy)pyrido[4,3-d]pyrimidin-7-yl)-4-(trifluoromethoxy)phenol], the IC50 is reported as 51.5 nM.
